From ChEMBL document CHEMBL1154822, “Synthesis and antiproliferative activity of 7-azaindirubin-3'-oxime, a 7-aza isostere of the natural indirubin pharmacophore” (J Nat Prod, 2009)

Columns and labels:
Assay type in all cases: functional
[1] = test system: OVCAR-5; assay: Cytotoxicity against human OVCAR5 cells assessed as cell growth at 1 uM after 1 to 11 days by MTT assay; settings: read-out: Activity
[2] = test system: DU-145; assay: Cytotoxicity against human DU145 cells assessed as cell growth at 1 uM after 1 to 11 days by MTT assay; settings: read-out: Activity
[3] = test system: OVCAR-8; assay: Cytotoxicity against human OVCAR8 cells assessed as cell growth at 10 uM after 1 to 11 days by MTT assay; settings: read-out: Activity
[4] = test system: T47D; assay: Cytotoxicity against human T47D cells assessed as cell growth at 1 uM after 1 to 11 days by MTT assay; settings: read-out: Activity
[5] = test system: MOLT-4; assay: Cytotoxicity against human MOLT4 cells assessed as cell growth at 10 uM after 1 to 11 days by MTT assay; settings: read-out: Activity
[6] = test system: HOP-92; assay: Cytotoxicity against human HOP92 cells assessed as cell growth at 10 uM after 1 to 11 days by MTT assay; settings: read-out: Activity
[7] = test system: U-251; assay: Cytotoxicity against human U251 cells assessed as cell growth at 10 uM after 1 to 11 days by MTT assay; settings: read-out: Activity
[8] = test system: Malme-3M; assay: Cytotoxicity against human MALME-3M cells assessed as cell growth at 100 uM after 1 to 11 days by MTT assay; settings: read-out: Activity
[9] = test system: SK-MEL-28; assay: Cytotoxicity against human SK-MEL-28 cells assessed as cell growth at 100 uM after 1 to 11 days by MTT assay; settings: read-out: Activity
[10] = test system: MDA-MB-231; assay: Cytotoxicity against human MDA-MB-231 cells assessed as cell growth at 10 uM after 1 to 11 days by MTT assay; settings: read-out: Activity
[11] = test system: CCRF-CEM; assay: Cytotoxicity against human CCRF-CEM cells assessed as cell growth at 100 uM after 1 to 11 days by MTT assay; settings: read-out: Activity
[12] = test system: A549; assay: Cytotoxicity against human A549 cells assessed as cell growth at 100 uM after 1 to 11 days by MTT assay; settings: read-out: Activity
[13] = test system: HOP-62; assay: Cytotoxicity against human HOP62 cells assessed as cell growth at 100 uM after 1 to 11 days by MTT assay; settings: read-out: Activity
[14] = test system: NCI-H322M; assay: Cytotoxicity against human NCI-H322M cells assessed as cell growth at 100 uM after 1 to 11 days by MTT assay; settings: read-out: Activity
[15] = test system: SW-620; assay: Cytotoxicity against human SW620 cells assessed as cell growth at 100 uM after 1 to 11 days by MTT assay; settings: read-out: Activity
[16] = test system: IGROV-1; assay: Cytotoxicity against human IGROV1 cells assessed as cell growth at 100 uM after 1 to 11 days by MTT assay; settings: read-out: Activity
[17] = test system: TK-10; assay: Cytotoxicity against human TK10 cells assessed as cell growth at 100 uM after 1 to 11 days by MTT assay; settings: read-out: Activity
[18] = test system: T47D; assay: Cytotoxicity against human T47D cells assessed as cell growth at 100 uM after 1 to 11 days by MTT assay; settings: read-out: Activity
[19] = test system: COLO 205; assay: Cytotoxicity against human COLO205 cells assessed as cell growth at 1 mM after 1 to 11 days by MTT assay; settings: read-out: Activity
[20] = test system: SF-539; assay: Cytotoxicity against human SF539 cells assessed as cell growth at 1 mM after 1 to 11 days by MTT assay; settings: read-out: Activity
[21] = test system: K562; assay: Cytotoxicity against human K562 cells after 1 to 11 days by MTT assay
[22] = test system: NCI-H226; assay: Cytotoxicity against human NCI-H226 cells after 1 to 11 days by MTT assay
[23] = test system: NCI-H322M; assay: Cytotoxicity against human NCI-H322M cells after 1 to 11 days by MTT assay
[24] = test system: SF-268; assay: Cytotoxicity against human SF268 cells after 1 to 11 days by MTT assay
[25] = test system: M14; assay: Cytotoxicity against human M14 cells assessed as cell growth at 1 mM after 1 to 11 days by MTT assay; settings: read-out: Activity
[26] = test system: SK-MEL-28; assay: Cytotoxicity against human SK-MEL-28 cells assessed as cell growth at 1 mM after 1 to 11 days by MTT assay; settings: read-out: Activity
[27] = test system: OVCAR-4; assay: Cytotoxicity against human OVCAR4 cells assessed as cell growth at 1 mM after 1 to 11 days by MTT assay; settings: read-out: Activity
[28] = test system: DU-145; assay: Cytotoxicity against human DU145 cells assessed as cell growth at 1 mM after 1 to 11 days by MTT assay; settings: read-out: Activity
[29] = test system: T47D; assay: Cytotoxicity against human T47D cells assessed as cell growth at 1 mM after 1 to 11 days by MTT assay; settings: read-out: Activity
[30] = test system: 786-0; assay: Cytotoxicity against human 786-0 cells after 1 to 11 days by MTT assay
[31] = test system: HL-60(TB); assay: Cytotoxicity against human HL-60(TB) cells assessed as cell growth at 0.1 uM after 1 to 11 days by MTT assay; settings: read-out: Activity
[32] = test system: MOLT-4; assay: Cytotoxicity against human MOLT4 cells assessed as cell growth at 0.1 uM after 1 to 11 days by MTT assay; settings: read-out: Activity
[33] = test system: NCI-H23; assay: Cytotoxicity against human NCI-H23 cells assessed as cell growth at 0.1 uM after 1 to 11 days by MTT assay; settings: read-out: Activity
[34] = test system: NCI-H522; assay: Cytotoxicity against human NCI-H522 cells assessed as cell growth at 0.1 uM after 1 to 11 days by MTT assay; settings: read-out: Activity
[35] = test system: COLO 205; assay: Cytotoxicity against human COLO205 cells assessed as cell growth at 0.1 uM after 1 to 11 days by MTT assay; settings: read-out: Activity
[36] = test system: HT-29; assay: Cytotoxicity against human HT-29 cells assessed as cell growth at 0.1 uM after 1 to 11 days by MTT assay; settings: read-out: Activity
[37] = test system: IGROV-1; assay: Cytotoxicity against human IGROV1 cells assessed as cell growth at 0.1 uM after 1 to 11 days by MTT assay; settings: read-out: Activity
[38] = test system: UO-31; assay: Cytotoxicity against human UO31 cells assessed as cell growth at 0.1 uM after 1 to 11 days by MTT assay; settings: read-out: Activity
[39] = test system: DU-145; assay: Cytotoxicity against human DU145 cells assessed as cell growth at 0.1 uM after 1 to 11 days by MTT assay; settings: read-out: Activity
[40] = test system: NCI/ADR-RES; assay: Cytotoxicity against human NCI/ADR-RES cells assessed as cell growth at 0.1 uM after 1 to 11 days by MTT assay; settings: read-out: Activity
[41] = test system: HL-60(TB); assay: Cytotoxicity against human HL-60(TB) cells assessed as cell growth at 1 uM after 1 to 11 days by MTT assay; settings: read-out: Activity
[42] = test system: U-251; assay: Cytotoxicity against human U251 cells assessed as cell growth at 1 uM after 1 to 11 days by MTT assay; settings: read-out: Activity
[43] = test system: Malme-3M; assay: Cytotoxicity against human MALME-3M cells assessed as cell growth at 1 uM after 1 to 11 days by MTT assay; settings: read-out: Activity
[44] = test system: M14; assay: Cytotoxicity against human M14 cells assessed as cell growth at 1 uM after 1 to 11 days by MTT assay; settings: read-out: Activity
[45] = read-out: LC50 (the source's name)

In the case of O=C1Nc2ncccc2/C1=C1/Nc2ccccc2/C1=N\O, the growth at 1 µM [1] is reported as 89%, the growth at 1 µM [2] is reported as 102% and the growth at 10 µM [3] is reported as 84%. The growth at 1 µM [4] was 86%, the growth at 10 µM [5] was 70% and the growth at 10 µM [6] was 62%. For the same compound, the growth at 10 µM [7] was 89%, the growth at 100 µM [8] was 13% and the growth at 100 µM [9] was 54%. It also gave a growth at 10 µM [10] of 76%, a growth at 100 µM [11] of 37% and a growth at 100 µM [12] of 15%. For the same compound, the growth at 100 µM [13] was 63%, the growth at 100 µM [14] was 8% and the growth at 100 µM [15] was 43%. The growth at 100 µM [16] was 13%, the growth at 100 µM [17] was 49% and the growth at 100 µM [18] was 16%. The growth at 1000 µM [19] was 23%, the growth at 1000 µM [20] was 52% and the GI50 [21] was 3.84 µM. For the same compound, the TGI [21] was > 100 µM, the CC50 [21, 45] was > 100 µM and the GI50 [22] was 1.14 µM. For the same compound, the TGI [22] was > 100 µM, the CC50 [22, 45] was > 100 µM and the GI50 [23] was 1.35 µM. For the same compound, the TGI [23] was > 100 µM, the CC50 [23, 45] was > 100 µM and the GI50 [24] was > 100 µM. The TGI [24] was > 100 µM, the CC50 [24, 45] was > 100 µM and the growth at 1000 µM [25] was 21%. It also gave a growth at 1000 µM [26] of 47%, a growth at 1000 µM [27] of 39% and a growth at 1000 µM [28] of 35%. For the same compound, the growth at 1000 µM [29] was 21%, the GI50 [30] was 7.46 µM and the CC50 [30, 45] was > 100 µM. For the same compound, the growth at 0.1 µM [31] was 103%, the growth at 0.1 µM [32] was 92% and the growth at 0.1 µM [33] was 96%. It also gave a growth at 0.1 µM [34] of 100%, a growth at 0.1 µM [35] of 96% and a growth at 0.1 µM [36] of 99%. For the same compound, the growth at 0.1 µM [37] was 102%, the growth at 0.1 µM [38] was 85% and the growth at 0.1 µM [39] was 102%. The growth at 0.1 µM [40] was 99%, the growth at 1 µM [41] was 99% and the growth at 1 µM [42] was 97%. For the same compound, the growth at 1 µM [43] was 89% and the growth at 1 µM [44] was 95%.
